Measured values reported in publication PMC12351953, “SCAN-ACT: adoptive T cell therapy target discovery through single-cell transcriptomics” (Genome Medicine, 2025).

Molecular target: HLA-A*02:01 (Homo sapiens, UniProt P04439, D140Y/D185E/D98H/E176V/E277Q/G131W/G231S/I119V/I121R/I166T/I218V/L300P/L318F/N151K/N90K/P208A/P217A/Q86G/Q94H/R138H/R169H/T345S)
Test: IMMUNE on-yeast peptide competition against biotinylated indicator peptide
Type: binding
Settings: yeast-displayed HLA, 0.5 µM biotinylated indicator peptide (Bio-KLT), 20-fold more concentrated test peptide, overnight to equilibrium, flow cytometry
Description: To construct plasmids driving the expression of non-covalent HLA-I heterodimers, the commercially available backbone vector pRS315 was modified. Briefly, the entire expression cassette containing genes encoding the Aga2 leader sequence, the ectodomain of a particular HLA-I heavy chain allele (A*02:01 or A*11:01 or B*35:01 or C*12:03), the Aga2p yeast native protein subunit, an HA epitope tag, and the MFα terminator was cloned to the downstream of the GAL10 promoter in pRS315, so that the expressed HLA-I heavy chain ectodomain was fused to the N-terminus of Aga2p for yeast surface display. […]
A sufficient amount of galactose-induced yeast cells was collected by centrifugation and labeled by primary antibodies in PBS + 0.5% bovine serum albumin (BSA) for 1 h on ice. […] FL1 and FL4 fluorescence channels were selected for Alexa Fluor 488 and Alexa Fluor 647, respectively, according to the fluorophore selected at the secondary labeling step as mentioned above. […]
To design indicator peptides appropriate for evaluation of HLA peptide binding on the surface of yeast cells and for downstream competitive assay development, the reported epitope repertoire for each aforementioned HLA allele from the Immune Epitope Database was carefully analyzed. […]

Sequence: RLHRIIPKI [test peptide from SSX1 (printed SSXI), pMHC target identified through PS-TRACT]
- binding to A*02:01 (IMMUNE): bound
